Assay results taken from patent publication US20240182465A1 (GENFLEET THERAPEUTICS (SHANGHAI) INC., priority 2021, published 2024).
Structures can show the parent of a compound that is named as a salt.

Columns and labels:
HPK1 [1] = molecular target: T1, HPK1 (Homo sapiens, UniProt Q92918); assay: HPK1 kinase activity assay (ADP-Glo); settings: HPK1 Kinase activity IC50 (nM), 1 nM HPK1, 10 μM ATP, 0.1 μg/μL MBP
T1 sequence (Q92918 1-346 limits assumed): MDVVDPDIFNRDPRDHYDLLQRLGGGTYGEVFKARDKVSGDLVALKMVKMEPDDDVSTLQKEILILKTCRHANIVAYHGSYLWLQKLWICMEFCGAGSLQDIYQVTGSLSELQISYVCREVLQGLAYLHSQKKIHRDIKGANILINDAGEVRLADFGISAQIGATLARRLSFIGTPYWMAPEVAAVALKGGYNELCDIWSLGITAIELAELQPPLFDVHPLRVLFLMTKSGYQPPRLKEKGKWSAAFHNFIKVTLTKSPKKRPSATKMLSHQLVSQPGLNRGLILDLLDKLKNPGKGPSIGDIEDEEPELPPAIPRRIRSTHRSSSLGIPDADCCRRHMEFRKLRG

HPK1 [2] = molecular target: HPK1 (Homo sapiens, UniProt Q92918); assay: SLP76 phosphorylation assay (intracellular HPK1 inhibitory activity, p-SLP76 Ser376 sandwich ELISA); settings: p-SLP76 IC50(nM), Jurkat, Clone E6-1 cells; 1 h compound pre-incubation, anti-CD3 beads stimulation 20 min; SLP76 phosphorylation at S376
Target sequence in this assay (Q92918 whole entry): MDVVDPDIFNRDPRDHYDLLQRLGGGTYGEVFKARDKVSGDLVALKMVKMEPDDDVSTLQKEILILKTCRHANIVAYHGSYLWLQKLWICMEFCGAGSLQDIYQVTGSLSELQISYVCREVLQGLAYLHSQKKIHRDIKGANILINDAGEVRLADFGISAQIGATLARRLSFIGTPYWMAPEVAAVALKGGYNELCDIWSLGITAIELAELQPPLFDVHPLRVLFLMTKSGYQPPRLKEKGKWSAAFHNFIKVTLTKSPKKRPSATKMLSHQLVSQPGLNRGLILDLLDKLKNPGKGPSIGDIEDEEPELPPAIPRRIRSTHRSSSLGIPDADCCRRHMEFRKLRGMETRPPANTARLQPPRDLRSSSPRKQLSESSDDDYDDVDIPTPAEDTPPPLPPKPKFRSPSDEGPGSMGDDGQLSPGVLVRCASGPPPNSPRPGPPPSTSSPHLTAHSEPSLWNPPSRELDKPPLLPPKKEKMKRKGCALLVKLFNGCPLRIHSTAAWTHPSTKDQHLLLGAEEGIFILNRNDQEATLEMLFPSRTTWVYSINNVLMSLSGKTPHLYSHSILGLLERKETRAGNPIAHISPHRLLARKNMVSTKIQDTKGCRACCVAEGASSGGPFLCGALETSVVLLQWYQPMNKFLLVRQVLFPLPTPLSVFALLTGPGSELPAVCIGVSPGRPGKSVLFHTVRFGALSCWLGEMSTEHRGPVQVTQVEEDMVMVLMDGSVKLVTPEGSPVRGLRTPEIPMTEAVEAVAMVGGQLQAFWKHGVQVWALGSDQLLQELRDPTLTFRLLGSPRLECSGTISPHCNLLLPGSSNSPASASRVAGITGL

Structure (SMILES)	IC50 (HPK1 [1]) [nM]	IC50 (HPK1 [2]) [nM]
Cc1c[nH]c2ncc(-c3cc4c(c([C@@H]5CCCN5)c3)CN(C(=O)c3cn(C(C)C)nc3C(F)(F)F)CC4)cc12 [Compound Z348, (S)-[1-isopropyl-3-(trifluoromethyl)-1H-pyrazol-4-yl]-[6-(3-methyl-1H-pyrrolo[2,3-b]pyridin-5-yl)-8-[pyrrolidin-2-yl]-3,4-dihydroisoquinolin-2(1H)-yl]methanone]	0.75	183
CO[C@H]1CCN(C(=O)N2CCc3cc(-c4cnc5[nH]cc(C)c5c4)cc([C@@H]4CCCN4)c3C2)C1 [Compound Z357-1]	0.31	99.3
CO[C@@H]1CCN(C(=O)N2CCc3cc(-c4cnc5[nH]cc(C)c5c4)cc([C@@H]4CCCN4)c3C2)C1 [Compound Z357-2, ((R)-3-methoxypyrrolidin-1-yl)(6-(3-methyl-1H-pyrrolo[2,3-b]pyridin-5-yl)-8-((S)-pyrrolidin-2-yl)-3,4-dihydroisoquinolin-2(1H)-yl)methanone]	0.26	80.7
Cc1c[nH]c2ncc(-c3cc4c(c([C@@H]5CCCN5)c3)CN(C(=O)N3CCOC[C@@H]3C)CC4)cc12 [Compound Z358-1]	0.23	67.4
Cc1c[nH]c2ncc(-c3cc4c(c([C@@H]5CCCN5)c3)CN(C(=O)N3CCOC[C@H]3C)CC4)cc12 [Compound Z358-2, (6-(3-methyl-1H-pyrrolo[2,3-b]pyridin-5-yl)-8-((S)-pyrrolidin-2-yl)-3,4-dihydroisoquinolin-2(1H)-yl) ((R)-3-methylmorpholin)methanone]	0.23	53.2
Cc1c[nH]c2ncc(-c3cc4c(c([C@@H]5CCCN5)c3)CN(C(=O)N3CCO[C@@H](C)C3)CC4)cc12 [Compound Z359-1, (6-(3-methyl-1H-pyrrolo[2,3-b]pyridin-5-yl)-8-((S)-pyrrolidin-2-yl)-3,4-dihydroisoquinolin-2(1H)-yl) ((S)-2-methylmorpholin)methanone]	0.27	135
Cc1c[nH]c2ncc(-c3cc4c(c([C@@H]5CCCN5)c3)CN(C(=O)N3CCO[C@H](C)C3)CC4)cc12 [Compound Z359-2, (6-(3-methyl-1H-pyrrolo[2,3-b]pyridin-5-yl)-8-((S)-pyrrolidin-2-yl)-3,4-dihydroisoquinolin-2(1H)-yl) ((R)-2-methylmorpholin)methanone]	0.36	98.1
Cc1c[nH]c2ncc(-c3cc4c(c([C@@H]5CCCN5)c3)CN(C(=O)N3CCOCC3(C)C)CC4)cc12 [Compound Z361]	0.36	102
O=C1OCc2ccc(-c3c[nH]c4ncc(-c5cc6c(c([C@@H]7CCCN7)c5)COCC6)cc34)cc21 [Compound Z365, (S)-6-(5-(8-(pyrrolidin-2-yl)isochroman-6-yl)-1H-pyrrolo[2,3-b]pyridin-3-yl)isobenzofuran-1(3H)-one]	0.97	315
Cc1c[nH]c2ncc(-c3cc4c(c([C@@H]5CCCN5)c3)CN(C(=O)Nc3nccs3)C4)cc12 [Compound Z386, (S)-6-(3-methyl-1H-pyrrolo[2,3-b]pyridin-5-yl)-4-(pyrrolidin-2-yl)-N-(thiazol-2-yl)isoindoline-2-carboxamide]	2.74	632
Cc1c[nH]c2ncc(-c3cc4c(c([C@@H]5CCCN5)c3)CN(C(=O)N3CC5CCC(C3)O5)CC4)cc12 [Compound Z389, (8-oxa-3-azabicyclo[3.2.1]octan-3-yl)(6-(3-methyl-1H-pyrrolo[2,3-b]pyridin-5-yl)-8-((S)-pyrrolidin-2-yl)-3,4-dihydroisoquinolin-2(1H)-yl)methanone]	0.21	47.1
Cc1c[nH]c2ncc(-c3cc4c(c([C@@H]5CCCN5)c3)CCN(C3CCOCC3)C4)cc12 [Compound Z401, (S)-7-(3-methyl-1H-pyrrolo[2,3-b]pyridin-5-yl)-5-(pyrrolidin-2-yl)-2-(tetrahydro-2H-pyran-4-yl)-1,2,3,4-tetrahydroisoquinoline]	3.19	462
Cc1c[nH]c2ncc(-c3cc4c(c([C@@H]5CCCN5)c3)CCN(CC3CCOCC3)C4)cc12 [Compound Z402, 7-(3-methyl-1H-pyrrolo[2,3-h]pyridin-5-yl)-2-(3,4,5,6-tetrahydro-2H-pyran-4-ylmethyl)-5-[(2S)-tetrahydro-1H-pyrrol-2-yl]-1,2,3,4-tetrahydroisoquinoline]	1.2	454
COCC(=O)N1CCc2cc(-c3cnc4[nH]cc(C(C)C)c4c3)cc([C@@H]3CCCN3)c2C1 [Compound Z404]	0.32	113

Further lines, results first:

IC50 (HPK1 [1]) [nM]	IC50 (HPK1 [2]) [nM]	Structure (SMILES)
0.47	240	Cc1ncc(C(=O)N2CCc3cc(-c4cnc5[nH]cc(C)c5c4)cc([C@@H]4CCCN4)c3C2)c(C(F)(F)F)n1 [Compound Z349, (S)-(6-(3-methyl-1H-pyrrolo[2,3-b]pyridin-5-yl)-8-(pyrrolidin-2-yl)-3,4-dihydroisoquinolin-2(1H)-yl) (2-methyl-4-(trifluoromethyl)pyrimidin-5-yl)methanone]
0.87	126	Cc1c[nH]c2ncc(-c3cc4c(c([C@@H]5CCCN5)c3)CN(C(=O)c3cnc(C5CC5)nc3)CC4)cc12 [Compound Z351, (S)-(2-cyclopropylpyrimidin-5-yl)(6-(3-methyl-1H-pyrrolo[2,3-b]pyridin-5-yl)-8-(pyrrolidin-2-yl)-3,4-dihydroisoquinolin-2(1H)-yl)methanone]
1.02	269	Cc1c[nH]c2ncc(-c3cc4c(c([C@@H]5CCCN5)c3)CN(C(=O)c3cc(C)n(C)n3)CC4)cc12 [Compound Z354]
0.45	196	Cc1cc(C(=O)N2CCc3cc(-c4cnc5[nH]cc(C)c5c4)cc([C@@H]4CCCN4)c3C2)n(C)n1 [Compound Z355, (S)-(1,3-dimethyl-1H-pyrazol-5-yl)(6-(3-methyl-1H-pyrrolo[2,3-b]pyridin-5-yl)-8-(pyrrolidin-2-yl)-3,4-dihydroisoquinolin-2(1H)-yl)methanone]
0.28	62.1	Cc1c[nH]c2ncc(-c3cc4c(c([C@@H]5CCCN5)c3)CN(C(=O)N3CCOCC3)CC4)cc12 [Compound Z356, (S)-(6-(3-methyl-1H-pyrrolo[2,3-b]pyridin-5-yl)-8-(pyrrolidin-2-yl)-3,4-dihydroisoquinolin-2(1H)-yl) (morpholino)methanone]
0.22	92.9	Cc1c[nH]c2ncc(-c3cc4c(c([C@@H]5CCCN5)c3)CN(C(=O)N3CCOC(C)(C)C3)CC4)cc12 [Compound Z362, (S)-(2,2-dimethylmorpholine)(6-(3-methyl-1H-pyrrolo[2,3-b]pyridin-5-yl)-8-(pyrrolidin-2-yl)-3,4-dihydroisoquinolin-2(1H)-yl)methanone]
1.41	417	Cc1c[nH]c2ncc(-c3cc4c(c([C@@H]5CCCN5)c3)CN(C(=O)c3cnn(C)c3)C4)cc12 [Compound Z368, (S)-(1-methyl-1H-pyrazol-4-yl)(6-(3-methyl-1H-pyrrolo[2,3-b]pyridin-5-yl)-4-(pyrrolidin-2-yl)isoindolin-2-yl)methanone hydrochloride]
3.8	2400	Cc1c[nH]c2ncc(-c3cc4c(c([C@@H]5CCCN5)c3)CN(C(=O)Nc3cccnc3)C4)cc12 [Compound Z387, (S)-6-(3-methyl-1H-pyrrolo[2,3-b]pyridin-5-yl)-N-(pyridin-3-yl)-4-(pyrrolidin-2-yl)isoindoline-2-carboxamide]
